Data as given in patent US20190328665A1, “LIPOSOME COMPOSITIONS ENCAPSULATING MODIFIED CYCLODEXTRIN COMPLEXES AND USES THEREOF” (priority 2014, published 2019).
Values after ≈ are worked out from the molar mass of the structure shown.

How the values were obtained:
[1] = mouse, in vivo, iv, 100 mg/kg
[2] = test system: HCT116 cells with genetically inactivated TP53 alleles; assay: Xenograft of HCT116 cells with genetically inactivated TP53 alleles; set-up: species or system nude mice; conditions: mouse, in vivo
Experimental: (§1) Tumor volume was recorded every 48 hours.

[3] = Phase II / Phase 2 trials; cited from earlier work
[4] = test system: HCT116 xenografts; assay: HCT116 subcutaneous xenograft tumor growth; type: in vivo, nude mice
Experimental: as §1

[5] = in vivo; conditions: female, athymic nu/nu, mouse, iv
[6] = Passive loading of BI-2536 into liposomes; type: physicochemical
Experimental: Method 1: Encapsulation of BI-2536 in the lipid layer. Hydrogenated egg phosphatidylcholine (Avanti Polar Lipids), cholesterol, and DSPE-PEG2000 (Avanti Polar Lipids) (molar ratios 50:45:5) were dissolved in chloroform (20 mL). Ten milligrams of BI-2536 (in 1 mL chloroform) was added and the solvent was evaporated to generate a thin film. One milliliter of PBS (pH 7.4) was added to hydrate the lipid layer, and the mixture was shaken at 50° C. for 2 hours as described above. The vesicle suspension was sonicated for 30 min and then extruded successively through 0.4-, 0.2-, and 0.1-μm polycarbonate membranes (Whatman; Nuclepore Track-Etched Membrane) at 50° C. to obtain the final liposomes with low polydispersity at the desired size. The liposomes were then dialyzed in PBS overnight to remove unentrapped drug. The average size and polydispersity index were then measured by dynamic light-scattering experiments on a Malvem Z90. Drug content was calculated by rupturing the liposomes with an equal volume of methanol and measuring the UV-vis absorbance on a NanoDrop 1000.
Method 2: Hydration of the lipid layer with an aqueous formulation of BI-2536. Hydrogenated egg phosphatidylcholine (Avanti Polar Lipids), cholesterol, and DSPE-PEG2000 (Avanti Polar Lipids) (molar ratios 50:45:5) were dissolved in chloroform (20 mL), and the solvent was evaporated in vacuo to generate a thin film. One milliliter of aqueous BI-2536 (4 mg; pH 5.5) was added to hydrate the lipid layer, and the mixture was shaken at 50° C. for 2 hours as described above. The vesicle suspension was sonicated for 30 minutes and then extruded successively through 0.4-, 0.2-, and 0.1-μm polycarbonate membranes (Whatman; Nuclepore Track-Etched Membrane) at 50° C. to obtain the final liposomes with low polydispersity at the desired size. The liposomes were then dialyzed against PBS overnight to remove unentrapped drug. The average size and polydispersity index were then measured by dynamic light-scattering experiments on a Malvem Z90. Drug content was calculated by rupturing the liposomes with an equal volume of methanol and measuring the UV-vis absorbance on a NanoDrop 1000.
The cyclodextrin-based loading method was also compared with the most common approaches to entrapping hydrophobic and insoluble agents in liposomes. First, direct entrapment of BI-2536 in the lipid bilayer was attempted. BI-2536 was co-evaporated with hydrogenated egg phosphatidylcholine-cholesterol-1,2-distearoyl-sn-glycero-3-phosphoethanolamine-N-[methoxy(polyethylene glycol)-2000 (DSPE-PEG 2000) to prepare a thin film, which was subsequently hydrated with 1 mL PBS and extruded through a 100-nm polycarbonate membrane at 700 psi to prepare small, unilamellar vesicles (average particle size (Zavg) 126 nm; PDI 0.09). Upon overnight dialysis against PBS to remove unentrapped drug, the drug-containing liposomes rapidly swelled (Zavg 539 nm; PDI 0.49) and released nearly 90% of the entrapped drug. Second, the lipid film was hydrated with an aqueous formulation of BI-2536 (passive loading). Hydration of the lipid film, followed by extrusion and dialyses, led to stable liposomes. However, the encapsulation efficiency was <10%, 20-fold less than achievable with the modified cyclodextrins described herein.

[7] = physchem; type: physicochemical; conditions: for solubility: water
Experimental: (§2) Equimolar quantities of the drug (0.1 mmol; 30-50 mg) and appropriate cyclodextrin ([…]; 110-185 mg) were dissolved separately in methanol (nearly saturated; ˜1-2 mL) and deionized water (˜10-20 mg/mL), respectively. The methanolic solution of the drug was then added dropwise into the cyclodextrin solution with agitation ensuring a uniform suspension. This suspension was then shaken at 55° C. for 36-48 hours using an Eppendorf Thermomixer R. The solution was filtered to remove particulate matter and flash frozen in a dry ice/acetone bath followed by lyophilization. The lyophilized complex was stored at −20° C. until further use.
Organic dyes (coumarins) were used to determine whether the modified cyclodextrins could encapsulate and transport hydrophobic compounds across the liposome bilayer. Coumarins are very hydrophobic and a dramatic improvement in aqueous solubility was observed after they were encapsulated into 6′-mono-ethylenediamino-6′-deoxy-cyclodextrin (compound III). It was determined that the most efficient and convenient way to encapsulate the coumarins was by freeze drying (Cao et al. (2005) Drug Dev. Industr. Pharm. 31:747-756; Badr-Eldin et al. (2008) Eur. J. Pharm. Biopharm. 70:819-827). […] Once dissolved, the cyclodextrin-coumarin complexes were incubated with pre-formed liposomes exactly as described above, using a pH gradient to drive the compounds across the bilayer. Following overnight dialysis to remove unincorporated complexes, the liposomes were subsequently disrupted with methanol and the coumarin fluorescence measured. As shown by fluorescence spectroscopy, all cyclodextrin-dye complexes were incorporated into liposomes with high efficiency (>95%; FIG. 5). […] The incorporation of coumarin dyes into liposomes was easily discerned by the naked eye, as the coumarin-cyclodextrin liposomes were bright yellow, whereas control liposomes (made without cyclodextrins, for example) were colorless (FIGS. 5A-5C).

[8] = test system: RKO xenografts; assay: RKO xenograft tumor growth; type: in vivo, nude mice; conditions: free drug 150 mg/kg
Experimental: as §1
With the free drug, severe acute toxicity was evident. In previous studies, the free drug was administered by oral gavage, because its solubility is not sufficient for intravenous dosing.

[9] = Remote loading of cyclodextrin-encapsulated dyes/drugs into liposomes; type: physicochemical
Experimental: as §2
The lyophilized powder complex described above was pulverized and incubated with appropriate liposomal solutions (30-40 mg drug equivalent in 6 mL liposomal solution, to achieve loading ratios of 5-8 mg/mL concentrations) for 1 hour at 65° C. They were centrifuged at 1,000×g for 3 minutes to remove particulate matter and then dialyzed against 300 mM sucrose or commercial PBS solution (pH 7.4) overnight to remove material that had not been loaded into the liposomes. The size distributions of the liposomal formulations were characterized using the Malvem ZS90 instrument described above.
The liposomal solution was dialyzed against PBS overnight.
Organic dyes (coumarins) were used to determine whether the modified cyclodextrins could encapsulate and transport hydrophobic compounds across the liposome bilayer. […] It was determined that the most efficient and convenient way to encapsulate the coumarins was by freeze drying (Cao et al. (2005) Drug Dev. Industr. Pharm. 31:747-756; Badr-Eldin et al. (2008) Eur. J. Pharm. Biopharm. 70:819-827). […] Following overnight dialysis to remove unincorporated complexes, the liposomes were subsequently disrupted with methanol and the coumarin fluorescence measured. As shown by fluorescence spectroscopy, all cyclodextrin-dye complexes were incorporated into liposomes with high efficiency (>95%; FIG. 5). […]

[10] = mouse, in vivo, iv
Experimental: Coumarin 334 was used as a drug surrogate to assess biodistribution and pharmacokinetics of cyclodextrin-encapsulated liposomes. […] Female athymic nu/nu mice bearing HCT116 subcutaneous xenografts were used in the study following a modified protocol described in Macdiarmid et al. (2007) Cancer Cell 11:431-445. When the tumor volumes reached 400-600 mm^3, 12 mice were treated intravenouslys (i.v.) with 200 μL cyclodextrin-encapsulated, liposomal (CYCL-)coumarin 334 (0.5 mg/mL). Posttreatment, four mice were euthanized at time points 2, 24, and 48 hours and tumor, spleen, liver, kidneys, heart, and lungs were excised and weighed. Blood was also collected, and plasma was separated and stored at 4° C. Except for plasma, each frozen tissue was homogenized and sonicated in 0.9% saline [3×volume (μL) of tissue mass (mg)]. […] The samples were centrifuged (6,000×g for 10 minutes) and the fluorescence in the supematants was measured by a CytoFluor II fluorescence multiwall plate reader (Applied Biosystems) using excitation 485 nm/emission 530 nm. […]
To establish biodistribution and pharmacokinetics of the CYCL liposomes, liposomes loaded with coumarin 334 encapsulated in cyclodextrin VI were used to treat HCT116-bearing mice by intravenous (i.v.) injection. Samples from major tissues harvested at 2, 24, and 48 hours post-treatment were analyzed for their fluorescence.

[11] = direct entrapment in lipid bilayer, after extrusion
[12] = direct entrapment in lipid bilayer, after overnight dialysis against PBS

Compound: CC[C@@H]1C(=O)N(C)c2cnc(Nc3ccc(C(=O)NC4CCN(C)CC4)cc3OC)nc2N1C1CCCC1 [BI-2536]
- acute toxicity / survival [1]: somewhat lethargic immediately after drug administration, but survived
- tumor regressions [2]: not with free drug
- toxicity in clinical trials [3]: unacceptable toxicity (grade 4 neutropenia) at sub-therapeutic doses
- tumor regressions ([4]; mouse, in vivo): not with free drug
- slowing of tumor growth ([4]; two i.v. doses of 100 mg/kg): ~30%
- MTD [5]: 100 mg/kg
- PDI [6, 11]: 0.09
- average particle size (Zavg) [6, 11]: 126 nm
- PDI [6, 12]: 0.49
- average particle size (Zavg) [6, 12]: 539 nm
- entrapped drug released ([6]; direct entrapment in lipid bilayer, overnight dialysis against PBS): ~90%
- encapsulation efficiency relative to modified cyclodextrins (fold less) ([6]; passive loading): 20 fold
- encapsulation efficiency ([6]; passive loading: lipid film hydrated with aqueous BI-2536): < 10%
- effect of aminated cyclodextrins V and VI on aqueous solubility [7]: dramatically improved
- solubility [7]: 500 µg/mL (≈ 958 µM)

Compound: O=C(NOC[C@H](O)CO)c1ccc(F)c(F)c1Nc1ccc(I)cc1F [PD-0325901]
- toxicity in clinical trials [3]: retinal vein occlusion (RVO)
- slowing of tumor growth [8]: ~5%
- increase in solubility after encapsulation into cyclodextrins [7]: ~40 fold
- solubility [7]: 100 µg/mL (≈ 207 µM)

Compound: CCOC(=O)c1cc2cc3c4c(c2oc1=O)CCCN4CCC3 [coumarin 314]
- loading efficiency when encapsulated in unionizable native β-cyclodextrin ([9]; citrate liposomes): only marginally improved the loading efficiency
- loading into liposomes in the absence of cyclodextrins ([9]; citrate liposomes, identical conditions): poorly incorporated into liposomes

Compound: CC(=O)c1cc2cc3c4c(c2oc1=O)CCCN4CCC3 [coumarin 334]
- persistence in blood and tumor [10]: persisted in the blood and tumor
- tissue clearance [10]: cleared from most of the tissues examined

Compound: 6′,6′,6′,6′,6′,6′,6′-heptakis-succinyl-β-cyclodextrin [IX]
- liposome loading of PD-0325901 among cyclodextrins VI, VII, VIII, IX ([9]; acidic or basic liposomes): best liposome loading
